Measured values: patent publication US10597388B2, “Pyridazinone herbicides” (FMC CORPORATION, priority 2014, dated 2020)

Columns and labels:
Assay in all cases: Test D controlled growth environment herbicide test, pre- and postemergence
Assay type in all cases: in vivo
[1] = system: barley, spring (spring barley, Hordeum vulgare)
Outline: (§1)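 Pre-emergence: seeds sown in silt loam soil were sprayed with compound in a non-phytotoxic solvent mix containing surfactant. Post-emergence: plants at 2 to 18 cm (1- to 4-leaf stage) in peat moss/vermiculite medium got the same formulation. Visual 0–100 rating versus controls after 14 to 21 d.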

[2] = system: blackgrass (Alopecurus myosuroides)
Outline: as §1

[3] = system: bluegrass (annual bluegrass, Poa annua)
Outline: as §1

[4] = system: chamomile (scentless chamomile, Matricaria inodora)
Outline: as §1

[5] = system: field poppy (Papaver rhoeas)
Outline: as §1

[6] = system: foxtail, green (green foxtail, Setaria viridis)
Outline: as §1

[7] = system: lambsquarters (Chenopodium album)
Outline: as §1

[8] = system: mustard, wild (wild mustard, Sinapis arvensis)
Outline: as §1

[9] = system: oilseed rape (Brassica napus)
Outline: as §1

[10] = system: ryegrass, Italian (Italian ryegrass, Lolium multiflorum)
Outline: as §1

[11] = system: speedwell (bird's-eye speedwell, Veronica persica)
Outline: as §1

[12] = system: wheat, spring (spring wheat, Triticum aestivum)
Outline: as §1

[13] = system: wheat, winter (winter wheat, Triticum aestivum)
Outline: as §1

[14] = Postemergence, 31 g ai/ha, scale 0 to 100 (0 no effect, 100 complete control)
[15] = Postemergence, 125 g ai/ha, visual rating on scale 0 (no effect) to 100 (complete control), 14 to 21 d
[16] = Postemergence, 250 g ai/ha, scale 0 to 100 (0 no effect, 100 complete control)
[17] = Preemergence, 62 g ai/ha, scale 0 to 100 (0 no effect, 100 complete control)
[18] = Preemergence, 125 g ai/ha, scale 0 to 100 (0 no effect, 100 complete control)
[19] = Preemergence, 250 g ai/ha, scale 0 to 100 (0 no effect, 100 complete control)
[20] = postemergence, 62 g ai/ha, scale 0 to 100, 0 no effect, 100 complete control

Structure (SMILES): COc1nn(C)c(=O)c(-c2c(C)ccc3ccccc23)c1O [Compound 54]
- Barley, Spring plant response rating [1, 14]: 0
- Plant response rating, Barley, Spring [1, 15]: 0
- Plant response rating, Barley, Spring [1, 16]: 10
- Plant response rating (scale of 0 to 100), Barley, Spring ([1]; Preemergence, 31 g ai/ha): 0
- Plant response rating, Barley, Spring [1, 17]: 0
- Plant response rating, Barley, Spring [1, 18]: 0
- Plant response rating, Barley, Spring [1, 19]: 5
- Plant response rating, Barley, Spring [1, 20]: 0
- Blackgrass plant response rating [2, 14]: 25
- Plant response rating, Blackgrass [2, 15]: 70
- Plant response rating, Blackgrass [2, 16]: 75
- Plant response rating (scale of 0 to 100), Blackgrass ([2]; Preemergence, 31 g ai/ha): 15
- Plant response rating, Blackgrass [2, 17]: 30
- Plant response rating, Blackgrass [2, 18]: 50
- Plant response rating, Blackgrass [2, 19]: 75
- Plant response rating, Blackgrass [2, 20]: 40
- Bluegrass plant response rating [3, 14]: 10
- Plant response rating, Bluegrass [3, 15]: 25
- Plant response rating, Bluegrass [3, 16]: 35
- Plant response rating (scale of 0 to 100), Bluegrass ([3]; Preemergence, 31 g ai/ha): 0
- Plant response rating, Bluegrass [3, 17]: 10
- Plant response rating, Bluegrass [3, 18]: 15
- Plant response rating, Bluegrass [3, 19]: 25
- Plant response rating, Bluegrass [3, 20]: 15
- Chamomile plant response rating [4, 14]: 90
- Plant response rating, Chamomile [4, 15]: 100
- Plant response rating, Chamomile [4, 16]: 100
- Plant response rating, Chamomile [4, 20]: 100
- Field Poppy plant response rating [5, 14]: 70
- Plant response rating, Field Poppy [5, 15]: 100
- Plant response rating, Field Poppy [5, 16]: 100
- Plant response rating (scale of 0 to 100), Field Poppy ([5]; Preemergence, 31 g ai/ha): 90
- Plant response rating, Field Poppy [5, 17]: 55
- Plant response rating, Field Poppy [5, 18]: 100
- Plant response rating, Field Poppy [5, 19]: 100
- Plant response rating, Field Poppy [5, 20]: 100
- Foxtail, Green plant response rating [6, 14]: 55
- Plant response rating, Foxtail, Green [6, 15]: 70
- Plant response rating, Foxtail, Green [6, 16]: 80
- Plant response rating (scale of 0 to 100), Foxtail, Green ([6]; Preemergence, 31 g ai/ha): 50
- Plant response rating, Foxtail, Green [6, 17]: 60
- Plant response rating, Foxtail, Green [6, 18]: 65
- Plant response rating, Foxtail, Green [6, 19]: 100
- Plant response rating, Foxtail, Green [6, 20]: 65
- Lambsquarters plant response rating [7, 14]: 95
- Plant response rating, Lambsquarters [7, 15]: 95
- Plant response rating, Lambsquarters [7, 16]: 100
- Plant response rating (scale of 0 to 100), Lambsquarters ([7]; Preemergence, 31 g ai/ha): 65
- Plant response rating, Lambsquarters [7, 17]: 65
- Plant response rating, Lambsquarters [7, 18]: 95
- Plant response rating, Lambsquarters [7, 19]: 95
- Plant response rating, Lambsquarters [7, 20]: 95
- Mustard, Wild plant response rating [8, 14]: 100
- Plant response rating, Mustard, Wild [8, 15]: 100
- Plant response rating, Mustard, Wild [8, 16]: 100
- Plant response rating (scale of 0 to 100), Mustard, Wild ([8]; Preemergence, 31 g ai/ha): 50
- Plant response rating, Mustard, Wild [8, 17]: 100
- Plant response rating, Mustard, Wild [8, 18]: 100
- Plant response rating, Mustard, Wild [8, 19]: 100
- Plant response rating, Mustard, Wild [8, 20]: 100
- Oilseed Rape plant response rating [9, 14]: 75
- Plant response rating, Oilseed Rape [9, 15]: 100
- Plant response rating, Oilseed Rape [9, 16]: 100
- Plant response rating (scale of 0 to 100), Oilseed Rape ([9]; Preemergence, 31 g ai/ha): 15
- Plant response rating, Oilseed Rape [9, 17]: 50
- Plant response rating, Oilseed Rape [9, 18]: 85
- Plant response rating, Oilseed Rape [9, 19]: 100
- Plant response rating, Oilseed Rape [9, 20]: 95
- Ryegrass, Italian plant response rating [10, 14]: 80
- Plant response rating, Ryegrass, Italian [10, 15]: 90
- Plant response rating, Ryegrass, Italian [10, 16]: 95
- Plant response rating (scale of 0 to 100), Ryegrass, Italian ([10]; Preemergence, 31 g ai/ha): 35
- Plant response rating, Ryegrass, Italian [10, 17]: 90
- Plant response rating, Ryegrass, Italian [10, 18]: 100
- Plant response rating, Ryegrass, Italian [10, 19]: 100
- Plant response rating, Ryegrass, Italian [10, 20]: 85
- Speedwell plant response rating [11, 14]: 75
- Plant response rating, Speedwell [11, 15]: 100
- Plant response rating, Speedwell [11, 16]: 100
- Plant response rating (scale of 0 to 100), Speedwell ([11]; Preemergence, 31 g ai/ha): 100
- Plant response rating, Speedwell [11, 17]: 95
- Plant response rating, Speedwell [11, 18]: 100
- Plant response rating, Speedwell [11, 19]: 100
- Plant response rating, Speedwell [11, 20]: 100
- Wheat, Spring plant response rating [12, 14]: 0
- Plant response rating, Wheat, Spring [12, 15]: 15
- Plant response rating, Wheat, Spring [12, 16]: 25
- Plant response rating (scale of 0 to 100), Wheat, Spring ([12]; Preemergence, 31 g ai/ha): 0
- Plant response rating, Wheat, Spring [12, 17]: 0
- Plant response rating, Wheat, Spring [12, 18]: 0
- Plant response rating, Wheat, Spring [12, 19]: 45
- Plant response rating, Wheat, Spring [12, 20]: 0
- Wheat, Winter plant response rating [13, 14]: 0
- Plant response rating, Wheat, Winter [13, 15]: 25
- Plant response rating, Wheat, Winter [13, 16]: 30
- Plant response rating (scale of 0 to 100), Wheat, Winter ([13]; Preemergence, 31 g ai/ha): 0
- Plant response rating, Wheat, Winter [13, 17]: 0
- Plant response rating, Wheat, Winter [13, 18]: 15
- Plant response rating, Wheat, Winter [13, 19]: 35
- Plant response rating, Wheat, Winter [13, 20]: 5
